Reference: patent publication US20160011177A1, “SCREENING METHOD FOR THERAPEUTIC AGENTS FOR CHARCOT-MARIE-TOOTH DISEASE AND SELF-DIFFERENTIATION MOTOR NEURONS USED THEREFOR” (Samsung Life Public Welfare Foundation, priority 2013, published 2016)
Entries after “also recorded” stand apart in the source; their conditions may differ.

What was measured:
CMT 2F-MN = assay: α-tubulin acetylation in motor neurons (immunostaining, Western blotting); type: cell-based, human; settings: 5 μM tubastatin A, 12 hours, versus non-treated and normal control WA09_MN
From the text: To use the neurons differentiated from CMT patient originated iPSCs as the CMT drug efficiency test model, the recovery of axonal transport according to the treatment of tubastatin A, the histon deacetylase 6 (HDAC6) inhibitor, was investigated. CM2 subtype has heterogeneity in CMT causing gene, but nevertheless it causes malfunction in axonal transport system in many patients (Gentil B J and Cooper L, Brain Res Bull 2012; 88: 444-453). Therefore, the axonal transport efficiency of CMT 2F-MN was investigated by measuring the level of α-tubulin acetylation which was reported previously to be associated with the interaction between the vehicle and the motor protein (Westermann S and Weber K. Nat Rev Mol Cell Biol 2003; 4: 938-947).
Particularly, the CMT-2F-MN or WA09_MN differentiated by the same manner as described in Example <3-1> was treated with 5 μM tubastatin A, followed by culture for 12 hours. Then, the cells were immunostained with α-tubulin and acetylated α-tubulin by the same manner as described in Example <2-3>. […]
The CMT-2F-MN or WA09_MN treated with 5 μM tubastatin A was suspended in RIPA lysis buffer (pH 8.0) containing 150 mM NaCl, 1.0% NP-40, 0.5% sodium deoxycholate, 0.1% sodium dodecylsulfate, and 50 mM Tris. […] The band density was analyzed by using UN-SCAN-IT gel software in order to (Silk Scientific, USA) measure the level of α-tubulin acetylation. […]

HSP27 P182L-MN = assay: Moving mitochondria in motor neuron axons, microfluidic culture; type: cell-based, human
From the text: (§1) To use the neurons differentiated from CMT patient originated iPSCs as the CMT drug efficiency test model, moving mitochondria was investigated over the treatment of tubastatin A, the histon deacetylase 6 (HDAC6) inhibitor, through microfluidic culture, as shown in FIG. 13. And the axonal transport efficiency of motor neurons (CMT 2F-MN) was confirmed (FIG. 13).
(§2) Particularly, the CMT-2F-MN or WA09_MN obtained in Example <3-1> was separated as single cells by using accutase, which were then inoculated in microchannel plates (provided by Dr. Mok, Seoul National University, Korea; Park J W et al., Nat Protoc 2006; 1: 2128-2136) at the density of 1.0×10^5 cells/plate, followed by culture in neurobasal/B27 for 10 days. After axons were fully grown through micrometer-sized grooves and stretched to the opposite compartment, the processed motor neurons were transfected with mito-dsRED2 by using lipofectamine 2000 (Invitrogen, USA). Within 2 days from the transfection, 5˜10 μM tubastatin A was treated to the medium, followed by culture for 6 hours. Imaging of mitochondria was performed by using fluorescent microscope at the speed of 121 snaps/2 min. Moving velocity of the motor neuron was measured by using ImageJ and Kymograph.

WA09_hESC-MN = assay: as above; type: cell-based, human; settings: 6 hours
From the text: as §1, §2

HSP27 S135F-MN = assay: as above; type: cell-based, human
From the text: as §1, §2

CMT1A transgenic mouse = settings: cited from earlier work
Pmp22 mRNA = settings: transgenic mouse; cited from earlier work
myelinated nerve fibers = settings: cited from earlier work
[1] = CMT 2F-MN with P182L mutation, tubastatin A treated versus non-treated
[2] = CMT 2F-MN with S135F mutation, tubastatin A treated versus non-treated

**Q.** With CN1CCc2c(c3ccccc3n2Cc2ccc(C(=O)NO)cc2)C1 [tubastatin A] as the molecule, how does the “level of α-tubulin acetylation” value (CMT 2F-MN) read?
**A.** The value was “increased/recovered back to that of the normal control group; also recorded: significantly increased”.

**Q.** What about the “moving velocity of mitochondria, in words” value (HSP27 P182L-MN; [1]) of the same molecule?
**A.** Its value is “significantly increased”.

**Q.** What about the “transport frequency of mitochondria, in words” value (HSP27 P182L-MN; [1]) of the same molecule?
**A.** The value was “significantly increased”.

**Q.** And the “Moving velocity of mitochondria” value (HSP27 P182L-MN; HSP27 P182L-MN, 5 μM tubastatin A treated, 6 hours)?
**A.** Its value is 0.2599 ± 0.05186 μm/sec.

**Q.** And the “Migration of mitochondria (number of moving mitochondria by total number)” value (HSP27 P182L-MN; HSP27 P182L-MN, 10 μM tubastatin A treated, 6 hours)?
**A.** Its value is 44.61 ± 10.450%.

**Q.** What about the “Moving velocity of mitochondria” value (WA09_hESC-MN; 5 μM tubastatin A treated) of the same molecule?
**A.** Its value is 0.2446 ± 0.03859 μm/sec.

**Q.** And the “Migration of mitochondria (number of moving mitochondria by total number)” value (WA09_hESC-MN; 10 μM tubastatin A treated)?
**A.** Its value is 39.31 ± 3.831%.

**Q.** And the “moving velocity of mitochondria, in words” value (HSP27 S135F-MN; [2])?
**A.** Its value is “significantly increased”.

**Q.** What about the “transport frequency of mitochondria, in words” value (HSP27 S135F-MN; [2]) of the same molecule?
**A.** Its value is “significantly increased”.

**Q.** And the “Moving velocity of mitochondria” value (HSP27 S135F-MN; HSP27 S135F-MN, 5 μM tubastatin A treated, 6 hours)?
**A.** Its value is 0.2498 ± 0.02357 μm/sec.

**Q.** With O=C1O[C@H]([C@@H](O)CO)C(O)=C1O [Ascorbic acid] as the molecule, how does the “phenotype of hereditary motor and sensory neuropathies” value (CMT1A transgenic mouse) read?
**A.** The value was “improved”.

**Q.** What does the source list for CN(C)c1ccc([C@H]2C[C@]3(C)[C@@H](CC[C@]3(O)CCCO)[C@@H]3CCC4=CC(=O)CCC4=C32)cc1 [onapristone]?
**A.** over-expression of Pmp22 mRNA (Pmp22 mRNA): suppressed; phenotype of hereditary motor and sensory neuropathies (Pmp22 mRNA): improved; side effects (Pmp22 mRNA): without side effects

B1: neurotrophin-3 (protein, UniProt P20783 139-257, looked up)
Neurotrophin-3: YAEHKSHRGEYSVCDSESLWVTDKSSAIDIRGHQVTVLGEIKTGNSPVKQYFYETRCKEARPVKNGCRGIDDKHWNSQCKTSQTYVRALTSENNKLVGWRWIRIDTSCVCALSRKIGRT
notes: neurotrophin reported to increase myelinated nerve fibers
**Q.** With B1 as the molecule, how does the myelinated nerve fibers (myelinated nerve fibers) read?
**A.** Its myelinated nerve fibers is “increased”.

**Q.** What about the sensor related symptoms (myelinated nerve fibers) of the same molecule?
**A.** The sensor related symptoms was “improved”.
